Results taken from PMC7066191, “Exploiting loss of heterozygosity for allele-selective colorectal cancer chemotherapy” (Nature Communications, 2020).

How the values were obtained:
[1] = target: T1, Aurora kinase A (Homo sapiens, UniProt O14965); test: KdELECT competition binding (DiscoverX), 11-point; nanoDSF thermal shift
T1 construct: gene AURKA

[2] = target: AAK1 (Homo sapiens, UniProt Q2M2I8); test: biochemical; set-up: scanMAX competition binding; kinase recovered on immobilized ligand quantified by qPCR, per cent of control; conditions: read-out: APA (POC)
Experimental: (§1) The binding affinities of APA and NAPA were evaluated in the scanMAX^sm Kinase Assay Panel (DiscoverX) at a final concentration of 10 µM. The compounds were tested for steric or allosteric binding to kinases in solution. The kinase was captured from the solution through an immobilized kinase-specific ligand and the kinase recovery was quantified. The amount of recovered kinase in the presence or absence of APA or NAPA was measured by quantitative PCR compared with the kinase capture in absence of the compound. Any compound reducing the binding affinity of a kinase to the respective immobilized ligand was scored as a potential hit, and the binding affinity of the compound toward a kinase is interpreted as the difference between the kinase recovery in the absence and presence of the compound. The inhibitory binding constants (Kd) of APA and NAPA to AURKA were evaluated in a KdELECT Kinase Assay (DiscoverX). […] Data acquisition followed the same methodology as for the scanMAX^sm Kinase Assay Panel. 6 Supplementary Figure 4. Kinome inhibition profiles of APA and its NAT2 metabolite NAPA identifies preferential APA kinase targets and differential binding to AURKA a The human kinome was assessed for binding affinity to APA and NAPA at 10 µM concentration (468 kinases in the scanMAX Kinase Assay Panel, DiscoverX). The family stratification of kinases is shown as a cladogram. Circles visualize the binding affinity of NAPA and APA towards each kinase with a higher intensity of blue corresponding to a higher binding affinity. […] One single data point from one experiment at a concentration 18.5 µM of APA was excluded as an outlier. c Thermal shift assay for human recombinant AURKA in the presence of APA and the selective inhibitor S1451. Melting temperatures were obtained by calculating the first derivative of the tryptophan fluorescence ratio at 350 nm and 330 nm and are shown for AURKA in the presence of S1451 (blue) and APA (yellow). Structural similarities between APA and kinase inhibitors[27] prompted investigation of protein kinases as mediators of APA toxicity. […] To enrich for kinase interactions that could explain the preferential killing of slow NAT2 cells, we compared the binding affinity of each kinase with APA and NAPA, selected 44 targets with preferential binding to APA and excluded kinases non-essential for cell survival and those not expressed in CRC cells (Supplementary Fig. 4A, Supplementary Table 4). […] The growth inhibition of RKO and DLD-1 following siRNA-mediated AURKA knockdown (Figs. 3c, d) reflected the relative efficiency of protein downregulation (Supplementary Fig. 5C, D). […] (Supplementary Fig. 4C). AURKA regulates cell cycle progression through association with other centrosome and spindle-associated proteins. Its activation requires auto-phosphorylation at Thr288 and ensures spindle pole integrity, centrosome duplication as well as adequate chromosomal alignment and segregation, while its inhibition leads to multipolar spindles with acentrosomal poles[28],[31]. […] S1451 reduced the fraction of pAURKA levels by >90% regardless of NAT2 expression (Fig. 3f and Su

[3] = target: CDK7 (Homo sapiens, UniProt P50613); test: biochemical; set-up: scanMAX competition binding; kinase recovered on immobilized ligand quantified by qPCR, per cent of control; conditions: read-out: APA (POC)
Sequence of CDK7 (P50613 whole entry): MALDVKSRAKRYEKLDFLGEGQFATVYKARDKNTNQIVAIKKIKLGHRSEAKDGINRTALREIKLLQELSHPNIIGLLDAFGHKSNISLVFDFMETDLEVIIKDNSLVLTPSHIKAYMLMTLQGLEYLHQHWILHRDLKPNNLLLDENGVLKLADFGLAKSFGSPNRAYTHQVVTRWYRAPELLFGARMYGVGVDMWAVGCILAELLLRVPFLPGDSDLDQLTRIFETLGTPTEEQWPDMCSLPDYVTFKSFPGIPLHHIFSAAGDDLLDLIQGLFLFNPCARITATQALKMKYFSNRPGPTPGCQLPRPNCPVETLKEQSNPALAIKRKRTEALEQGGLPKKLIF
Experimental: as §1

[4] = target: CDKL2 (Homo sapiens, UniProt Q92772); test: biochemical; set-up: scanMAX competition binding; kinase recovered on immobilized ligand quantified by qPCR, per cent of control; conditions: read-out: APA (POC)
Sequence of CDKL2 (Q92772 whole entry): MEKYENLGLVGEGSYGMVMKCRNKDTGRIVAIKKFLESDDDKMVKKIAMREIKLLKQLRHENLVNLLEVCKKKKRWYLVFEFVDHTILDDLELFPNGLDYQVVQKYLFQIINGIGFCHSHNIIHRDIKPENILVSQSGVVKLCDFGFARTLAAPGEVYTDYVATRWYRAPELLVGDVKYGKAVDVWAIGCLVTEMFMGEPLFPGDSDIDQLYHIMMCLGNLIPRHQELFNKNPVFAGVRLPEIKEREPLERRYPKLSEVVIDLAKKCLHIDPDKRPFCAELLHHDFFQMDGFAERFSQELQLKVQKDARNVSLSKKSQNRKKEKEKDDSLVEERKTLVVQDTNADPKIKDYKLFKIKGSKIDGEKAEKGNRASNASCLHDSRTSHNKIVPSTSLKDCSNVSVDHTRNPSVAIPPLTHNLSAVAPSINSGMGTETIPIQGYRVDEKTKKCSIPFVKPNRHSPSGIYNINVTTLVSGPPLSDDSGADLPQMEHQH
Experimental: as §1

[5] = target: CSF1R (Homo sapiens, UniProt P07333); test: biochemical; set-up: scanMAX competition binding; kinase recovered on immobilized ligand quantified by qPCR, per cent of control; conditions: read-out: APA (POC)
Sequence of CSF1R (P07333 whole entry): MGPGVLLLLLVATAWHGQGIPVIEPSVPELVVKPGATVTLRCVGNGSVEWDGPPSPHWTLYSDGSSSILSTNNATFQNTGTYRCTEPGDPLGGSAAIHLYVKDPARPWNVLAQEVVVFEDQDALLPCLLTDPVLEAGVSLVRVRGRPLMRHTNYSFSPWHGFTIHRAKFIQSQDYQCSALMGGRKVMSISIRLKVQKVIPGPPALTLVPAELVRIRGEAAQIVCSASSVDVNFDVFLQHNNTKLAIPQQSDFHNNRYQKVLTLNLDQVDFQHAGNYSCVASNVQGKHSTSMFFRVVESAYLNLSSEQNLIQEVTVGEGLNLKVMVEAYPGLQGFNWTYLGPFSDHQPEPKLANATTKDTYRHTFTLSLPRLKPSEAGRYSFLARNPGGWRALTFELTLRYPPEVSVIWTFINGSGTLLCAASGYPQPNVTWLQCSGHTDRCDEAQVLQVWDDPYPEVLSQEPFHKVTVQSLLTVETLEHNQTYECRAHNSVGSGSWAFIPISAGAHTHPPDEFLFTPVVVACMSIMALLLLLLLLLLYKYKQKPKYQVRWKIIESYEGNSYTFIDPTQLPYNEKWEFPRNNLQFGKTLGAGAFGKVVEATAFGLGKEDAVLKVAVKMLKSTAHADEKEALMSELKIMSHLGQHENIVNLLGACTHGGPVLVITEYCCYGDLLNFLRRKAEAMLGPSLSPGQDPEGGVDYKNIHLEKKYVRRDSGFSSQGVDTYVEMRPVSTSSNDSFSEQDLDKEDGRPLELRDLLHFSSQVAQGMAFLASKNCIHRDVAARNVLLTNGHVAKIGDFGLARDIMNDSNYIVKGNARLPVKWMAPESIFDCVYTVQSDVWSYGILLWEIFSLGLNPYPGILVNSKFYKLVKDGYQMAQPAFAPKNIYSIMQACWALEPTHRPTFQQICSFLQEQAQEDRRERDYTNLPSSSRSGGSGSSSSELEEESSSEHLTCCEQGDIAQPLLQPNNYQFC
Experimental: as §1

[6] = target: EIF2AK4 (Homo sapiens, UniProt Q9P2K8); test: biochemical; set-up: scanMAX competition binding; kinase recovered on immobilized ligand quantified by qPCR, per cent of control; conditions: read-out: APA (POC)
Experimental: as §1

[7] = target: GRK4 (Homo sapiens, UniProt P32298); test: biochemical; set-up: scanMAX competition binding; kinase recovered on immobilized ligand quantified by qPCR, per cent of control; conditions: read-out: APA (POC)
Sequence of GRK4 (P32298 whole entry): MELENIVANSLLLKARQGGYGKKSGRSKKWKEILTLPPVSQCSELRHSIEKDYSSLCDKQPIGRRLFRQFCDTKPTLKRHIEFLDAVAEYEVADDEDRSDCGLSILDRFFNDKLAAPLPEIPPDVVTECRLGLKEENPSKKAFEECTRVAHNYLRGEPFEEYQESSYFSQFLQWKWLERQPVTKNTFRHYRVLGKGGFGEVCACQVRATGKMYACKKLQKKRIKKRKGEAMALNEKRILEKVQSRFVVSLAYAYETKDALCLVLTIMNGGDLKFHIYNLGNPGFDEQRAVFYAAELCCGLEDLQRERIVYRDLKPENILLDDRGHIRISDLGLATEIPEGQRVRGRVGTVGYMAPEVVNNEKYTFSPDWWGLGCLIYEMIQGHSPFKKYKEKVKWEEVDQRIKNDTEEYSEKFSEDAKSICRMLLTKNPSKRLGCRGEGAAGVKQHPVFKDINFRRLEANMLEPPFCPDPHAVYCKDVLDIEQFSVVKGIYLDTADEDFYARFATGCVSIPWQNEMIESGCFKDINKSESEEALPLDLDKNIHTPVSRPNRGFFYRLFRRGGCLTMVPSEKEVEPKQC
Experimental: as §1

[8] = target: HIPK1 (Homo sapiens, UniProt Q86Z02); test: biochemical; set-up: scanMAX competition binding; kinase recovered on immobilized ligand quantified by qPCR, per cent of control; conditions: read-out: APA (POC)
Experimental: as §1

[9] = target: MAP3K9 (Homo sapiens, UniProt P80192); test: biochemical; set-up: scanMAX competition binding; kinase recovered on immobilized ligand quantified by qPCR, per cent of control; conditions: read-out: APA (POC)
Experimental: as §1

[10] = target: MAST1 (Homo sapiens, UniProt Q9Y2H9); test: biochemical; set-up: scanMAX competition binding; kinase recovered on immobilized ligand quantified by qPCR, per cent of control; conditions: read-out: APA (POC)
Experimental: as §1

[11] = target: MINK1 (Homo sapiens, UniProt Q8N4C8); test: biochemical; set-up: scanMAX competition binding; kinase recovered on immobilized ligand quantified by qPCR, per cent of control; conditions: read-out: APA (POC)
Sequence of MINK1 (Q8N4C8 whole entry): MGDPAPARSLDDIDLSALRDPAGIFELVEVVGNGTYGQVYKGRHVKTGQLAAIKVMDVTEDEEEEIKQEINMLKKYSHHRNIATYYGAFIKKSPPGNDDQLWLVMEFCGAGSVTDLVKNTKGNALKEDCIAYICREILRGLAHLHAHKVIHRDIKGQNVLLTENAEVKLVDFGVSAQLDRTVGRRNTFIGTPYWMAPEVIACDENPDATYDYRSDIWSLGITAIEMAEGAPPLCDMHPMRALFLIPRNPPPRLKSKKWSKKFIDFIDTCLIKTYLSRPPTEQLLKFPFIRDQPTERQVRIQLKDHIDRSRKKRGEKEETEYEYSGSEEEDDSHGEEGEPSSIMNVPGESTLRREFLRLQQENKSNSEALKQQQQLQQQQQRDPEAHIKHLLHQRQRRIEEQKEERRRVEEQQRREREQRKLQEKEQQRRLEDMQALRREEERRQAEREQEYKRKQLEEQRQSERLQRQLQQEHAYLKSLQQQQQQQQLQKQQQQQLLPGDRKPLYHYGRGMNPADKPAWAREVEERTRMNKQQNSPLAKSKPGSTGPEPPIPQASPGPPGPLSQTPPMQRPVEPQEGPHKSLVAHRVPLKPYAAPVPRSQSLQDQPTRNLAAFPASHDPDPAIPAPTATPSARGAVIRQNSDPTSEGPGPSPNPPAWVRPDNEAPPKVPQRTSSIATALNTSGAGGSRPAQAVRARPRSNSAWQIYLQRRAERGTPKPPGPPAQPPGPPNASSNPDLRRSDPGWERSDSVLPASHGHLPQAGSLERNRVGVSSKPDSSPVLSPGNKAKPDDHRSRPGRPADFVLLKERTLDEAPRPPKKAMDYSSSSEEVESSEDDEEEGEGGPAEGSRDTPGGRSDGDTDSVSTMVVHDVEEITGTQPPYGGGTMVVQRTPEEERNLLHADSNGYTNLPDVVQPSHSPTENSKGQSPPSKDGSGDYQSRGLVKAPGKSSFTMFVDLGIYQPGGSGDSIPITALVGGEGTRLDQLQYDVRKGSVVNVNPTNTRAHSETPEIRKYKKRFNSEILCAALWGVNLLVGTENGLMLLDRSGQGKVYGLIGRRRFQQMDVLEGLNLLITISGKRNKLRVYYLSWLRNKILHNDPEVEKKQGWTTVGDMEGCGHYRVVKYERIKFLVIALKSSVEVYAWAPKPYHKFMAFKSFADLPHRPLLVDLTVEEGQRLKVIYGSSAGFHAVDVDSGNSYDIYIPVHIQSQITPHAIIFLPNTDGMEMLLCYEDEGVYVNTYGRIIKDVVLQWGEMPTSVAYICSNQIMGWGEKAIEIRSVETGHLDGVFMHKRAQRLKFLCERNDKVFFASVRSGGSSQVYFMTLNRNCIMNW
Experimental: as §1

[12] = target: MKNK1 (Homo sapiens, UniProt Q9BUB5); test: biochemical; set-up: scanMAX competition binding; kinase recovered on immobilized ligand quantified by qPCR, per cent of control; conditions: read-out: APA (POC)
Experimental: as §1

[13] = target: NEK10 (Homo sapiens, UniProt Q6ZWH5); test: biochemical; set-up: scanMAX competition binding; kinase recovered on immobilized ligand quantified by qPCR, per cent of control; conditions: read-out: APA (POC)
Experimental: as §1

[14] = target: PIP4K2B (Homo sapiens, UniProt P78356); test: biochemical; set-up: scanMAX competition binding; kinase recovered on immobilized ligand quantified by qPCR, per cent of control; conditions: read-out: APA (POC)
Experimental: as §1

[15] = target: PIP5K1A (Homo sapiens, UniProt Q99755); test: biochemical; set-up: scanMAX competition binding; kinase recovered on immobilized ligand quantified by qPCR, per cent of control; conditions: read-out: APA (POC)
Experimental: as §1

[16] = target: T2, ZAK (Homo sapiens, UniProt Q9NYL2); test: biochemical; set-up: scanMAX competition binding; kinase recovered on immobilized ligand quantified by qPCR, per cent of control; conditions: read-out: APA (POC)
T2 construct: gene MAP3K20
T2 sequence (Q9NYL2 whole entry): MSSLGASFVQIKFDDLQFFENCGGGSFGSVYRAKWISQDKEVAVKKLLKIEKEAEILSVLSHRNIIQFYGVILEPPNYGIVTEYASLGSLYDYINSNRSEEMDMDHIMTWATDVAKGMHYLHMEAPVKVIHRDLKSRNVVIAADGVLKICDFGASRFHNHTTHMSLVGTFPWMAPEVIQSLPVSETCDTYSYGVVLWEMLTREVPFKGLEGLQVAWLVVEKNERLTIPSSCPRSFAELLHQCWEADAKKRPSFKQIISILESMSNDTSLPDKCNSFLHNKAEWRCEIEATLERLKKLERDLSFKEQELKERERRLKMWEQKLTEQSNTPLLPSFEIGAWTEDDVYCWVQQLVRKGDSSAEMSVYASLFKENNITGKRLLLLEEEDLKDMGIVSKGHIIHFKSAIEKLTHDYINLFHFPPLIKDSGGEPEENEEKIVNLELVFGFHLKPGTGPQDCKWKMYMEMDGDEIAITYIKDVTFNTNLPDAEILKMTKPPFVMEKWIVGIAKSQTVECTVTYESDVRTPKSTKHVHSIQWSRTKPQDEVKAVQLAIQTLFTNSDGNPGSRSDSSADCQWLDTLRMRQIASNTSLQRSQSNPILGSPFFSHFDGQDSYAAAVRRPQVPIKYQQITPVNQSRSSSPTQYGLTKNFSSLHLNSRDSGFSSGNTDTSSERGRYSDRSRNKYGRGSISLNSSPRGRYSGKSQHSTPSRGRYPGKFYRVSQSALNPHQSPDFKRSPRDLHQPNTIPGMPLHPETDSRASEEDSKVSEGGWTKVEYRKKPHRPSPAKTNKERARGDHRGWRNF
Experimental: as §1

T1 sequence (O14965 whole entry): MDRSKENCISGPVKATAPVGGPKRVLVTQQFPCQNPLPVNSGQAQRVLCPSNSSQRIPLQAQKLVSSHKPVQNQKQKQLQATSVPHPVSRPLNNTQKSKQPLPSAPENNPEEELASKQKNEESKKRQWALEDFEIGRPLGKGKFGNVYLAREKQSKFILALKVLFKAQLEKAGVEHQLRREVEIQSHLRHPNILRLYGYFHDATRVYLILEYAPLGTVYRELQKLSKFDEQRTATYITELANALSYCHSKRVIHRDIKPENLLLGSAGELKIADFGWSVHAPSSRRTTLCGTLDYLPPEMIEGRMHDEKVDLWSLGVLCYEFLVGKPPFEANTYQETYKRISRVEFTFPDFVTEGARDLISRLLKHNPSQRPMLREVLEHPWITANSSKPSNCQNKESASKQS

SMILES: COc1cc(Nc2cncc(-c3ccc(N)cc3)n2)cc(OC)c1OC [APA, 6-(4-aminophenyl)-N-(3,4,5-trimethoxyphenyl)pyrazin-2-amine]
- Kd [1]: 13.5 µM
- remaining binding at 10 µM [2]: 45%
- remaining binding at 10 µM [3]: 49%
- remaining binding at 10 µM [4]: 42%
- remaining binding at 10 µM [5]: 3.9%
- remaining binding at 10 µM [6]: 38%
- remaining binding at 10 µM [7]: 15%
- remaining binding at 10 µM [8]: 12%
- remaining binding at 10 µM [9]: 8.5%
- remaining binding at 10 µM [10]: 46%
- remaining binding at 10 µM [11]: 24%
- remaining binding at 10 µM [12]: 37%
- remaining binding at 10 µM [13]: 37%
- remaining binding at 10 µM [14]: 20%
- remaining binding at 10 µM [15]: 52%
- remaining binding at 10 µM [16]: 22%
